Type in all cases: cell-based
The target of experiment [1] is T1, IRAK4 (Homo sapiens, UniProt Q9NWZ3).
T1 construct: endogenous in cells; host or cells: Karpas299
T1 sequence (Q9NWZ3 1-460): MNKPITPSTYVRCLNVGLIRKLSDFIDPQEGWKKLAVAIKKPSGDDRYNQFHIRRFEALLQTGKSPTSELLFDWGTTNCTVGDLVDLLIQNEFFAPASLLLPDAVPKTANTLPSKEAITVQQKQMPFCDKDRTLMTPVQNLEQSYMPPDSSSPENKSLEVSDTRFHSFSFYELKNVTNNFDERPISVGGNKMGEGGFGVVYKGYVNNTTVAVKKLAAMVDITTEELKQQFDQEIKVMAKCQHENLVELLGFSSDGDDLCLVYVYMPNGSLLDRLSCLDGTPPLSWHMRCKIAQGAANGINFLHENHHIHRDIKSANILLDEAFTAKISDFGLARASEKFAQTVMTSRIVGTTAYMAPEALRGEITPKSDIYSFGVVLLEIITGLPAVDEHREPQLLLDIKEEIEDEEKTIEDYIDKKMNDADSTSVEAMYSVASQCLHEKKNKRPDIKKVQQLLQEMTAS
Description: IRAK4 Degradation Assay (Karpas299, HTRF/TR-FRET). The gist of the method: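 Compound potency as DC50 (IC50) came from four-parameter fits of percent IRAK4 degradation. IRAK4 was measured by HTRF (665/620 nm) in lysates of Karpas299 cells seeded at 0.2 million per well. Cells had been treated with compound dilutions for 5 or 24 h.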
(Time-resolved FRET reads energy transfer from a long-lived donor to a nearby acceptor.)

The target of experiment [2] is T1, IRAK4. Description: IRAK4 Degradation Assay with Human Serum (Karpas299, HTRF/TR-FRET). Particulars: Karpas-299 in human serum, 24 hrs treatment; for DC50: read-out: IRAK4 degradtion with human serum assay DC50; for Dmax: read-out: IRAK4 degradtion with human serum assay Dmax (%). The gist of the method:
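Remaining IRAK4 measured by TR-FRET immunoassay on lysates of Karpas299 cells exposed 24 h to compound dilution series in human serum AB. DC50 derived from a Hill-slope fit of % degradation versus concentration.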

Experiment [3] has as its system TNF-α production in THP-1 cells. Description: TNF-α Production Assay in THP-1 Cells (LPS stimulated). Particulars: Homo sapiens, THP-1, 24 h; for Emax: maximum inhibition, read-out: TNF-α (THP-1) 24 h IMax. The gist of the method:
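Cells (0.2 million/well) pretreated with compounds for 24 h, then stimulated with LPS at 1 μg/mL final for 24 h. TNF-α in culture supernatant quantified by TR-FRET immunoassay.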

For experiment [4], the system named is IL-6 production in human PBMC. Description: IL-6 Production Assay in Human PBMC (LPS stimulated). Particulars: Homo sapiens, 5 h; for Emax: maximum inhibition, read-out: IL-6 (PBMC) 5 h IMax. How it is done:
Frozen human PBMC (AllCells) were thawed in RPMI 1640 medium (Thermo Scientific) supplemented with 10% heat-inactivated FBS (Thermo Scientific) and recovered at 37° C. overnight. The next day, PBMC were seeded into 96-well plates at the density of 0.2 million cells per well and treated with compounds for 24 h. Then lipopolysaccharide was added at the final concentration of 10 ng/mL for 5 h. Culture supernatant was collected for subsequent measurement of IL-6 concentration by a TR-FRET-based method (Degorce, François, et al. Current chemical genomics. 2009, 3: 22) as described by the manufacturer manual (Cisbio). FRET signals were measured with PHERAstar FSX reader (BMG Labtech).

Where [5] appears, read: Karpas-299 cells, 24 h treatment, maximum percentage of degradation, read-out: IRAK4 in Karpas-299 (24 h) Dmax (%).
Where [6] appears, read: Karpas-299 cells, 24 h treatment, read-out: IRAK4 in Karpas-299 (24 h) DC50.
Setting [7] is: Karpas-299 cells, 5 h treatment, maximum percentage of degradation, read-out: IRAK4 in Karpas-299 (5 h) Dmax (%).
Where [8] appears, read: Karpas-299 cells, 5 h treatment, read-out: IRAK4 in Karpas-299 (5 h) DC50.

One may read the Dmax as the greatest extent of degradation seen. By DC50 is commonly meant the concentration giving 50% degradation. One may read the IC50 as the concentration needed to halve the response being measured. Low readings indicate higher potency, high ones lower potency. Turning to `CC(C)(O)c1cc2nn(C34CCC(N5CCN(CCc6cc(F)c([C@H]7CCC(=O)NC7=O)c(F)c6)CC5)(CC3)CC4)cc2cc1NC(=O)c1ccc2cc(C#N)cnn12` [Example 151, (R)-3-cyano-N-(2-(4-(4-(4-(2,6-dioxopiperidin-3-yl)-3,5-difluorophenethyl)piperazin-1-yl)bicyclo[2.2.2]octan-1-yl)-6-(2-hydroxypropan-2-yl)-2H-indazol-5-yl)pyrrolo[1,2-b]pyridazine-7-carboxamide], the Dmax on IRAK4 [1] (setting [5]) was determined as 99%; on IRAK4 [2] it was 101%. Moreover, the DC50 at IRAK4 [1] (setting [6]) is 0.9 nM; on IRAK4 [2], 3.9 nM. Moreover, the values for the IC50 in experiment [3] and in experiment [4] were 27 nM and 7.4 nM, respectively. For the same compound, the Emax was 84% in experiment [3] and 53% in experiment [4].

For `CC(C)(O)c1cc2nn([C@H]3CC[C@H](N4CCN(CCc5cc(F)c([C@H]6CCC(=O)NC6=O)c(F)c5)CC4)CC3)cc2cc1NC(=O)c1ccc2cc(C#N)cnn12` [Example 182, 3-cyano-N-(2-((1R,4r)-4-(4-(4-((R)-2,6-dioxopiperidin-3-yl)-3,5-difluorophenethyl)piperazin-1-yl)cyclohexyl)-6-(2-hydroxypropan-2-yl)-2H-indazol-5-yl)pyrrolo[1,2-b]pyridazine-7-carboxamide], the Dmax at IRAK4 [1] (setting [7]) was found to be 96%; at IRAK4 [1] (setting [5]) it was 98%; at IRAK4 [2] it was 99%. Also, the half-maximal degradation concentration (DC50) at IRAK4 [1] (setting [8]) came to 2.3 nM; at IRAK4 [1] (setting [6]), 0.3 nM; at IRAK4 [2], 3.7 nM. The values for the IC50 in experiment [3] and in experiment [4] were 33 nM and 2.5 nM, respectively. The Emax in experiment [3] came to 71%; in experiment [4], 64%.

`CC(C)(O)c1cc2nn([C@H]3CC[C@H](N4CCN([C@H]5C[C@H](c6cc(F)c([C@H]7CCC(=O)NC7=O)c(F)c6)C5)CC4)CC3)cc2cc1NC(=O)c1ccc2cc(C#N)cnn12` [Example 364, 3-cyano-N-(2-((1R,4r)-4-(4-((1R,3R)-3-(4-((R)-2,6-dioxopiperidin-3-yl)-3,5-difluorophenyl)cyclobutyl)piperazin-1-yl)cyclohexyl)-6-(2-hydroxypropan-2-yl)-2H-indazol-5-yl)pyrrolo[1,2-b]pyridazine-7-carboxamide]: the Dmax at IRAK4 [1] (setting [7]) amounted to 96%; at IRAK4 [1] (setting [5]), 96%; at IRAK4 [2] it was 99%. In addition, the results for the DC50 on IRAK4 [1] (setting [8]), on IRAK4 [1] (setting [6]) and on IRAK4 [2] were 0.8 nM, 1.3 nM and 4.6 nM, respectively. Moreover, the 50% inhibitory concentration (IC50) came to 14 nM in experiment [3] and 0.6 nM in experiment [4]. Also, the values for the Emax in experiment [3] and in experiment [4] were 98% and 74%, respectively.

As for `CC(C)(O)c1cc2nn(C3CCN(C4CCN(C(=O)[C@@H]5CCN(c6cc(F)c([C@H]7CCC(=O)NC7=O)c(F)c6)C5)CC4)CC3)cc2cc1NC(=O)c1cccc(C(F)(F)F)n1` [Example 161, N-(2-(1′-((R)-1-(4-((R)-2,6-dioxopiperidin-3-yl)-3,5-difluorophenyl)pyrrolidine-3-carbonyl)-[1,4′-bipiperidin]-4-yl)-6-(2-hydroxypropan-2-yl)-2H-indazol-5-yl)-6-(trifluoromethyl)picolinamide], the Dmax was determined as 91% on IRAK4 [1] (setting [7]) and 97% on IRAK4 [1] (setting [5]). Also, the DC50 at IRAK4 [1] (setting [8]) was determined as 5 nM; at IRAK4 [1] (setting [6]), 0.3 nM. Further, the half-maximal inhibitory concentration (IC50) in experiment [3] was 38 nM; in experiment [4], 4.9 nM. Besides, the Emax in experiment [3] was found to be 85%; in experiment [4] it was 90%.

Turning to `COc1cc2nn([C@H]3CC[C@H](N4CCN(C(=O)C5CN(c6ccc(N7CCC(=O)NC7=O)cc6)C5)CC4)CC3)cc2cc1NC(=O)c1cccc(C(F)(F)F)n1` [Example 37, N-(2-((1r,4r)-4-(4-(1-(4-(2,4-dioxotetrahydropyrimidin-1(2H)-yl)phenyl)azetidine-3-carbonyl)piperazin-1-yl)cyclohexyl)-6-methoxy-2H-indazol-5-yl)-6-(trifluoromethyl)picolinamide], the DC50 was found to be 0.7 nM on IRAK4 [1] (Degradation (Karpas-299), comparison table, Linker Type B, read-out: Compound (Linker Type B) DC50); 9.1 nM at IRAK4 [1] (setting [8]); 0.7 nM at IRAK4 [1] (setting [6]). Also, the Dmax turned out to be 96% at IRAK4 [1] (Degradation (Karpas-299), comparison table, Linker Type B, read-out: Compound (Linker Type B) Dmax (%)); 93% at IRAK4 [1] (setting [7]); 96% on IRAK4 [1] (setting [5]). Moreover, the IC50 in experiment [3] amounted to 34 nM; in experiment [4] it was 11 nM. Also, the Emax amounted to 82% in experiment [3] and 90% in experiment [4].

For the compound `O=C1CC[C@H](c2c(F)cc(N3CC[C@@H](C(=O)N4CCN([C@H]5CC[C@H](n6cc(NC(=O)c7coc(-c8ccnc(NCC(F)(F)F)c8)n7)c(C(F)F)n6)CC5)CC4)C3)cc2F)C(=O)N1` [Example 17, N-(3-(difluoromethyl)-1-((1R,4r)-4-(4-((R)-1-(4-((R)-2,6-dioxopiperidin-3-yl)-3,5-difluorophenyl)pyrrolidine-3-carbonyl)piperazin-1-yl)cyclohexyl)-1H-pyrazol-4-yl)-2-(2-((2,2,2-trifluoroethyl)amino)pyridin-4-yl)oxazole-4-carboxamide], the Dmax on IRAK4 [1] (setting [7]) is 96%; on IRAK4 [1] (setting [5]) it was 97%. Moreover, the DC50 on IRAK4 [1] (setting [8]) is 8.8 nM; at IRAK4 [1] (setting [6]), 2.2 nM. For the same compound, the IC50 came to 34 nM in experiment [3] and 6.7 nM in experiment [4]. In addition, the Emax was 87% in experiment [3] and 93% in experiment [4].

As to `NC(=O)c1nn([C@H]2CC[C@H](N3CCN(C(=O)[C@@H]4CCN(c5cc(F)c([C@H]6CCC(=O)NC6=O)c(F)c5)C4)CC3)CC2)cc1NC(=O)c1coc(-c2ccnc(NCC(F)(F)F)c2)n1` [Example 12, N-(3-carbamoyl-1-((1R,4r)-4-(4-((R)-1-(4-((R)-2,6-dioxopiperidin-3-yl)-3,5-difluorophenyl)pyrrolidine-3-carbonyl)piperazin-1-yl)cyclohexyl)-1H-pyrazol-4-yl)-2-(2-((2,2,2-trifluoroethyl)amino)pyridin-4-yl)oxazole-4-carboxamide], the Dmax on IRAK4 [1] (setting [7]) was determined as 97%; on IRAK4 [1] (setting [5]) it was 98%. The figures for the 50% degradation concentration (DC50) at IRAK4 [1] (setting [8]) and at IRAK4 [1] (setting [6]) were 5.4 nM and 1.8 nM, respectively. Also, the IC50 in experiment [3] amounted to 25 nM; in experiment [4], 4.6 nM. Further, the Emax in experiment [3] is 90%; in experiment [4], 91%.

Turning to `CC(C)(O)c1cc2nc(C3CCN(C4CCN(C(=O)C5CN(c6cc(F)c([C@H]7CCC(=O)NC7=O)c(F)c6)C5)CC4)CC3)cn2cc1NC(=O)c1cccc(C(F)(F)F)n1` [Example 126, (R)—N-(2-(1′-(1-(4-(2,6-dioxopiperidin-3-yl)-3,5-difluorophenyl)azetidine-3-carbonyl)-[1,4′-bipiperidin]-4-yl)-7-(2-hydroxypropan-2-yl)imidazo[1,2-a]pyridin-6-yl)-6-(trifluoromethyl)picolinamide], the Dmax at IRAK4 [1] (setting [7]) worked out at 92%; at IRAK4 [1] (setting [5]), 99%. In addition, the DC50 on IRAK4 [1] (setting [8]) was found to be 8.4 nM; on IRAK4 [1] (setting [6]), 1.1 nM. In addition, the half-inhibitory concentration (IC50) in experiment [3] was determined as 43 nM; in experiment [4], 23 nM. In addition, the Emax in experiment [3] amounted to 88%; in experiment [4], 90%.

For the compound `CC(C)(O)c1cc2nn([C@H]3CC[C@H](N4CCN(C(=O)C5CN(c6cc(F)c([C@H]7CCC(=O)NC7=O)c(F)c6)C5)CC4)CC3)cc2cc1NC(=O)c1cccc(C(F)(F)F)n1` [Example 38, N-(2-((1r,4r)-4-(4-(1-(4-((R)-2,6-dioxopiperidin-3-yl)-3,5-difluorophenyl)azetidine-3-carbonyl)piperazin-1-yl)cyclohexyl)-6-(2-hydroxypropan-2-yl)-2H-indazol-5-yl)-6-(trifluoromethyl)picolinamide], the Dmax on IRAK4 [1] (setting [7]) worked out at 95%; on IRAK4 [1] (setting [5]) it was 99%. Also, the DC50 at IRAK4 [1] (setting [8]) is 2.3 nM; on IRAK4 [1] (setting [6]), 0.4 nM. Also, the values for the IC50 in experiment [3] and in experiment [4] were 19 nM and 2.1 nM, respectively. For the same compound, the Emax in experiment [3] was 87%; in experiment [4], 91%.
